Test results: article PMC8518382, “Identification of a Bromodomain‐like Region in 15‐Lipoxygenase‐1 Explains Its Nuclear Localization” (Angewandte Chemie (International Ed. in English), 2021)

Legend:
15-LOX-1 = target: T1, 15-LOX-1 (Homo sapiens, UniProt P16050); assay: Kitz-Wilson kinetic analysis of 15-LOX-1 inactivation; format: biochemical; design: His-tag (N); made in house; host or cells: E. coli BL21(DE3)
T1 sequence (P16050 1-662): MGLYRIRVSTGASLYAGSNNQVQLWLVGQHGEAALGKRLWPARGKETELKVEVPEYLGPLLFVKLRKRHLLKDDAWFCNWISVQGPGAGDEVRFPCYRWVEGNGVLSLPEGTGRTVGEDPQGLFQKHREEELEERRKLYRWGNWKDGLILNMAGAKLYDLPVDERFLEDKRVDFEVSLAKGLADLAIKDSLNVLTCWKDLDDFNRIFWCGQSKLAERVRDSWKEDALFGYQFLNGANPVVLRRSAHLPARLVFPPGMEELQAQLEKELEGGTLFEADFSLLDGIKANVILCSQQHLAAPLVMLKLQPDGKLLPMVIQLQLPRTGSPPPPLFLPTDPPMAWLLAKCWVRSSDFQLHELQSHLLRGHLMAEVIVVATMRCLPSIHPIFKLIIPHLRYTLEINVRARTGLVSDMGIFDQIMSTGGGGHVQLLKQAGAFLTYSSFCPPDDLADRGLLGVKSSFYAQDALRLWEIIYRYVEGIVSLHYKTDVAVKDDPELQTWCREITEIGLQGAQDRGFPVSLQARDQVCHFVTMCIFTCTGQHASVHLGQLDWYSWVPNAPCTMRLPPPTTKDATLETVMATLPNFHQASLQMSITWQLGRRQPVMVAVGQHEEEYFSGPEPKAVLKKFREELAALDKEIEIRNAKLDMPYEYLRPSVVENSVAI
Procedure: Subsequently, Kitz‐Wilson analysis was performed to distinguish the equilibrium binding constant (K i) from the rate of covalent inactivation (k i). The different bis‐alkynes provided remarkably constant k i’s that varied by a factor 3 or less, whereas the K i’s varied by a factor 200 (Table 1). […] Improved non‐covalent binding is an important characteristic for activity‐based labeling because it implies improved specific recognition properties to the target of interest. Therefore, inhibitor 3 has been used for further development of a probe for activity‐based labeling of lipoxygenase activity with 15‐LOX‐1 as a reference enzyme. For convenient discussion, we named inhibitor 3, “Labelox B”. […]
described in the IC50 determination assay. Michaelis-Menten plots, Lineweaver-Burk plots, Km, and Vmax, are generated using GraphPad Prism 8.3.0.
1.5. Kits-Wilson kinetic analysis
The probes inhibit the 15-LOX-1 enzyme with a two-step reaction. First, a probe binds to an enzyme to get a reversible complex, E*I. The dissociation constant of inhibitor (Ki) is from the formation of E*I. Then, the probe forms a covalent bond with the enzyme, which generates an irreversible complex, E-I. The inactivation rate constant (ki) is to describe the rate of E-I generation. To determine these inactivation parameters, Kitz-Wilson analysis was employed. The procedure has been detailed previously

5-LOX = target: T2, 5-LOX (Homo sapiens, UniProt P09917); assay: Sandwich ELISA of Labelox B biotinylation in A549 cell lysate, 5-LOX capture; format: biochemical; conditions: HRP-streptavidin detection, read-out: EC50 of labeling
T2 construct: the endogenous LOXs were captured on an anti‐LOX antibody precoated 96‐well plate; endogenous in cells; host or cells: A549 cell lysate
T2 sequence (P09917 1-674): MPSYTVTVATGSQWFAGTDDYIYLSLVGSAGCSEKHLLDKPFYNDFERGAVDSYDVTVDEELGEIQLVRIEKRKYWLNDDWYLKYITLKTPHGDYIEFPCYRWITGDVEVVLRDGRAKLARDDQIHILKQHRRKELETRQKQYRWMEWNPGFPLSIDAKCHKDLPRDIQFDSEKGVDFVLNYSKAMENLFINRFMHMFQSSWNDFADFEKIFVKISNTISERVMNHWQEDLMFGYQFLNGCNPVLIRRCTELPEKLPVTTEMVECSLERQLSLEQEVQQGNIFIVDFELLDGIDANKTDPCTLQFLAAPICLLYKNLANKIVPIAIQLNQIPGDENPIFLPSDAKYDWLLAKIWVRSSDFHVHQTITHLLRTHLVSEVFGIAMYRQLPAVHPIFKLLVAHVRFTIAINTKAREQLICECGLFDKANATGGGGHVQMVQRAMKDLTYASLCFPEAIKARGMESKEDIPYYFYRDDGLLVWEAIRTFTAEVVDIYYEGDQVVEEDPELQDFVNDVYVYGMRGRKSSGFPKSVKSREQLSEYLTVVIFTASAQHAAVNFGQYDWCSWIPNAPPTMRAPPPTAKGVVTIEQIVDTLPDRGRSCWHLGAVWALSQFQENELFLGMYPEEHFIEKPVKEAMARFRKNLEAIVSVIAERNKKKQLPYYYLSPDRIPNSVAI
Procedure: Labelox B efficiently labels endogenous LOXs. Lipoxygenase labeling by Labelox B was investigated using cell‐based assays. As a first step, labeling efficiency was estimated in intact RAW 264.7 macrophage cells that were treated with Labelox B in concentrations ranging between 1 μM and 100 μM with incubation times between 0.5 h and 6 h. […] As a next step, a sandwich ELISA assay was established in order to find proof that probe Labelox B is indeed labeling proteins with lipoxygenase enzyme activity. Towards this aim, A549 cell lysates were treated with sub‐micromolar to micromolar concentrations of Labelox B. Subsequently, the endogenous LOXs were captured on an anti‐LOX antibody precoated 96‐well plate followed by detection of Labelox B mediated biotinylation using HRP‐conjugated streptavidin. […] Furthermore, probe Labelox B enabled visualization of localized LOX activity in living cells (Figure 2 c). […] The fluorescence intensity increased with increasing doses of Labelox B and labeling was observed throughout the cells in the cytoplasm and the nucleus of A549.
Figure 2 Labelox B labels endogenous LOXs in a dose‐ and time‐dependent manner. a, b) Western blot analysis of Labelox B labeled LOXs in intact RAW 264.7 for indicated doses and time points. […] The pictures were captured by a Leica DM4000b fluorescence microscope.

CCCCCC#CCC#CCOC(=O)CCCC[C@@H]1SC[C@@H]2NC(=O)N[C@@H]21 [Labelox B (3)]
k i (rate of covalent inactivation) (15-LOX-1): 0.0191 ± 0.0038 min⁻¹
Ki (15-LOX-1; read-out: K i (equilibrium binding constant)): 500 ± 140 nM
EC50 (5-LOX): ~3500 nM
